Measured values published in US8637496B2, “Compounds having a monogalactosyldiacylglycerol synthase inhibitory activity as herbicide or algaecide, herbicide and algaecide compositions” (Commissariat a l'Energie Atomique, priority 2007, dated 2014).
pIC50: −log10 of the molar value. Where two headings read alike, the source gives them in different places.

How the values were obtained:
[1] = biological target: T1, MGDG synthase in isolated spinach chloroplast envelope membranes (Spinacia oleracea, UniProt Q9SM44); experiment: MGDG synthase activity in envelope membrane fractions isolated from spinach chloroplasts; format: biochemical
T1 construct: envelope membranes purified from the lysate by sucrose centrifugation gradient; from tissue; host or cells: envelope membranes of chloroplasts from spinach leaves
T1 sequence (Q9SM44 99-522): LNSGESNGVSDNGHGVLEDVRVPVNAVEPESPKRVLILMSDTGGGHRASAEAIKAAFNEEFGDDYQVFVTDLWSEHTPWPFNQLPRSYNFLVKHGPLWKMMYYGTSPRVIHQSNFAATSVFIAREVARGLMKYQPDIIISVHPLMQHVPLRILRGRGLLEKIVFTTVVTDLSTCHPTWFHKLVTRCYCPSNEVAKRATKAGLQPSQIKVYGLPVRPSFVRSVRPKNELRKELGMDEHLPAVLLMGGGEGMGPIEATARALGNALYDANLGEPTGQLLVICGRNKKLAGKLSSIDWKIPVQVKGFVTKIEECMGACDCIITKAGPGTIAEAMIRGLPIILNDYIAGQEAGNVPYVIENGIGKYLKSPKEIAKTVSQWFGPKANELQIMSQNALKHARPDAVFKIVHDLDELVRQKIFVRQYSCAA
Summary of the method: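 Envelope membranes purified from Percoll-isolated spinach chloroplasts by hypotonic lysis and sucrose gradient; MGDG synthase activity measured per published protocol.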

[2] = biological target: T2, spinach recombinant MGDG synthase (soMGD) (Spinacia oleracea, UniProt Q9SM44); experiment: MGDG synthase enzymatic assay of recombinant spinach MGD protein in mixed micelles; format: biochemical; conditions: recombinant enzyme expressed in E. coli, FIG. 2, read-out: IC50, inhibition of spinach recombinant MGDG synthase (soMGD) activity
T2 construct: The cDNA fragments corresponding to the mature form of spinach MGDG synthase, soMGD1; made in house; host or cells: Escherichia coli BL21-DE3, pET-3a (NdeI-BamHI)
T2 sequence (Q9SM44 99-522): T1 sequence (Q9SM44 99-522)
From the text: The cDNA fragments corresponding to the mature form of spinach MGDG synthase, soMGD1 [accession number CAB56218], and from the three isoforms that are present in Arabidopsis, i.e. atMGD1 [accession number BAB12042], atMGD2 [accession number T52269] and atMGD3 [accession number BAB12041] were inserted into the pET-3a expression vector from Novagen, as described by Miège C. et al., Eur. J. Biochem, 1999, 265, 990-1001 and Awai K. et al., Proc. Natl. Acad. Sci. U.S.A., 2001, 98, 10960-10965. All MGD sequences used in this study were inserted in NdeI-BamHI cloning site of the pET-3a vector. Induction of recombinant proteins was achieved following the pET expression system procedure. Isolated colonies of transfected Escherichia coli (BL21-DE3) were inoculated in LB medium (2.5 ml, 100 μg/ml carbenicillin) and grown at 37° C. When OD600 reached 0.5, the cell suspension was transferred to 15 ml of LB medium ([…] carbenicillin) and grown at 37° C. until OD600 reached 0.5. […]
The MGDG synthase enzymatic assay was achieved as described by Maréchal E. et al., J. Biol. Chem., 1995, 270, 5714-5722. […] J. Biochem. Physiol., 1959, 37, 911-917 and the radioactivity of the [^14C]-labelled MGDG ultimately produced, determined by liquid scintillation counting. […]

[3] = Table 1, obtained in the same manner as FIG. 4, read-out: Inhibitory effect on MGDG synthesis in isolated spinach chloroplast envelope membranes

SMILES	pIC50 [1, 3]	pIC50 ([1]; spinach chloroplast envelope membranes, FIG. 4, read-out: IC50, MGDG synthase activity in envelope membranes that surround chloroplasts)	pIC50 [2]
C[C@@H](COC(=O)N1CCC(n2c(=O)[nH]c3ccccc32)CC1)N(Cc1ccccc1)Cc1ccccc1 [Compound 7, (S)-2-(dibenzylamino)propyl 4-(1,2-dihydro-2-oxobenzo[d]imidazol-3-yl)piperidine-1-carboxylate]	4.35	5.00	4.35
O=C(OC[C@H](Cc1ccccc1)N(Cc1ccccc1)Cc1ccccc1)N1CCC(n2c(=O)[nH]c3ccccc32)CC1 [Compound 8, (S)-2-(dibenzylamino)-3-phenylpropyl 4-(1,2-dihydro-2-oxobenzo[d]imidazol-3-yl)piperidine-1-carboxylate]	5.00		4.00
